In the test the target is human TRPV3 receptors (Homo sapiens (Human), UniProt Q8NET8). As to the kind of experiment: Calcium flux assay (FLIPR TETRA), inhibition of the 2-APB response. The following applies: recombinant HEK293 cells stably expressing TRPV3, Calcium-4 dye, 2-APB at its EC80. It is filed as cell-based. As for the experimental part:
(i) In Vitro Methods-Calcium Flux Assays:
Experiments were conducted using the FLIPR^TETRA®. On the day prior to the experiment, recombinant HEK293 cells that stably express human and mouse TRPV3 were removed from tissue culture flasks and plated in growth medium at 20,000 cells/well into black-walled clear-bottom 384-well Biocoat™ poly-D-lysine assay plates (BD Biosciences, Bedford, Mass.) using a Multidrop® dispenser (ThermoScientific, Waltham, Mass.). […] Cells were incubated for 90-120 minutes in the dark. Compounds were dissolved in DMSO to prepare a 10 mM stock solution. The intensity of the fluorescence was captured and digitally transferred to an interfaced PC. The peak increase in fluorescence over baseline (relative fluorescence units) was calculated and expressed as the percentage of the maximal 2-APB (2-aminoethoxyldiphenyl borate) response (in the absence of compound).
A general note: Calcium assays in cells follow changes in intracellular calcium, usually with a dye or a luminescent sensor.
Sequence of human TRPV3 receptors (Q8NET8 whole entry): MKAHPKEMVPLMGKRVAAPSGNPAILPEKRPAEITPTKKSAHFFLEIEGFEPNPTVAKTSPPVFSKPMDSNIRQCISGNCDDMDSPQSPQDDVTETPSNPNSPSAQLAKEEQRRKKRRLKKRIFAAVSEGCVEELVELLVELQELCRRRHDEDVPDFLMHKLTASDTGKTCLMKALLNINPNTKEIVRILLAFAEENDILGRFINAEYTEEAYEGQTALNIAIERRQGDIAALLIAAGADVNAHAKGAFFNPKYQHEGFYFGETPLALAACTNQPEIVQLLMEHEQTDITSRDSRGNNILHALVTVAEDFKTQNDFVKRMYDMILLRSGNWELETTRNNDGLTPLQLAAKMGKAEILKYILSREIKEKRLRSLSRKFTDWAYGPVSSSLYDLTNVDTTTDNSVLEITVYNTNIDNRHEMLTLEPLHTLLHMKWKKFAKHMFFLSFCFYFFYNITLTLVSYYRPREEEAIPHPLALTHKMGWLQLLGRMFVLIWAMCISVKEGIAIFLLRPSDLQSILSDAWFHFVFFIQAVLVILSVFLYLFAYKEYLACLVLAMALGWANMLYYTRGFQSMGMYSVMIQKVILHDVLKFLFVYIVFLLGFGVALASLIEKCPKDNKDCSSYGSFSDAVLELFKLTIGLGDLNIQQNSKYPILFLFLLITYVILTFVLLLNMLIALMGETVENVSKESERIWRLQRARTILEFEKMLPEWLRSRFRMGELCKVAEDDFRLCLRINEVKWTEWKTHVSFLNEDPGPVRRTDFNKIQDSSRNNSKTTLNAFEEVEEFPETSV
What is called IC50 is the concentration at which inhibition is half-maximal. Turning to `CC[C@H](C)[C@@H](CO)NCc1cccc(-c2ccc(C(F)(F)F)cc2)n1` [Example 2, (2S,3S)-3-methyl-2-[({6-[4-(trifluoromethyl)phenyl]pyridin-2-yl}methyl)amino]pentan-1-ol], the IC50 stood at 3810 nM. For the molecule `CC(C)[C@@H](CO)NCc1cccc(-c2ccc(C(F)(F)F)cc2)n1` [Example 3, (2S)-3-methyl-2-[({6-[4-(trifluoromethyl)phenyl]pyridin-2-yl}methyl)amino]butan-1-ol], the IC50 came out at 9380 nM. As to `CC(C)(CO)CNCc1cccc(-c2ccc(C(F)(F)F)cc2)n1` [Example 8, 2,2-dimethyl-3-[({6-[4-(trifluoromethyl)phenyl]pyridin-2-yl}methyl)amino]propan-1-ol], the IC50 was 2600 nM. In the case of `OC[C@@H]1[C@@H]2CC[C@@H](C2)[C@@H]1NCc1cccc(-c2ccc(C(F)(F)F)cc2)n1` [Example 9, {(1R,2R,3S,4S)-3-[({6-[4-(trifluoromethyl)phenyl]pyridin-2-yl}methyl)amino]bicyclo[2.2.1]heptan-2-yl}methanol], the half-inhibitory concentration (IC50) stood at 3650 nM. The result for `CC(C)[C@H](CO)NCc1cccc(N2CCCC2)n1` [Example 10, (2R)-3-methyl-2-({[6-(pyrrolidin-1-yl)pyridin-2-yl]methyl}amino)butan-1-ol] reads 3790 nM; that for `CC(C)[C@H](CO)NCc1cccc(N2CCCCC2)n1` [Example 11, (2R)-3-methyl-2-({[6-(piperidin-1-yl)pyridin-2-yl]methyl}amino)butan-1-ol], 1940 nM; that for `CC(C)[C@H](CO)NCc1cccc(OCc2ccccc2)n1` [Example 12, (2R)-2-({[6-(benzyloxy)pyridin-2-yl]methyl}amino)-3-methylbutan-1-ol], 910 nM. The result for `CC(C)[C@H](CO)NCc1nc(-c2ccccc2F)ccc1F` [Example 13, (2R)-2-({[3-fluoro-6-(2-fluorophenyl)pyridin-2-yl]methyl}amino)-3-methylbutan-1-ol] reads 1120 nM. For the molecule `CC(C)[C@H](CO)NCc1nc(-c2cccc(F)c2)ccc1F` [Example 14, (2R)-2-({[3-fluoro-6-(3-fluorophenyl)pyridin-2-yl]methyl}amino)-3-methylbutan-1-ol], the IC50 was determined as 810 nM. `CC(C)[C@H](CO)NCc1nc(-c2cccc(Cl)c2)ccc1F` [Example 15, (2R)-2-({[6-(3-chlorophenyl)-3-fluoropyridin-2-yl]methyl}amino)-3-methylbutan-1-ol]: the IC50 came to 1840 nM. For the molecule `CC(C)[C@H](CO)NCc1nc(-c2cccc(C(F)(F)F)c2)ccc1F` [Example 16, (2R)-2-[({3-fluoro-6-[3-(trifluoromethyl)phenyl]pyridin-2-yl}methyl)amino]-3-methylbutan-1-ol], the IC50 amounted to 1110 nM. With `CC(C)[C@H](CO)NCc1nc(-c2ccc(C(F)(F)F)cc2)ccc1F` [Example 17, (2R)-2-[({3-fluoro-6-[4-(trifluoromethyl)phenyl]pyridin-2-yl}methyl)amino]-3-methylbutan-1-ol] the figure was 200 nM; with `CC(C)[C@H](CO)NCc1nc(-c2cccc(OC(F)(F)F)c2)ccc1F` [Example 18, (2R)-2-[({3-fluoro-6-[3-(trifluoromethoxy)phenyl]pyridin-2-yl}methyl)amino]-3-methylbutan-1-ol], 1120 nM. With `CC(C)[C@H](CO)NCc1nc(-c2ccc(OC(F)(F)F)cc2)ccc1F` [Example 19, (2R)-2-[({3-fluoro-6-[4-(trifluoromethoxy)phenyl]pyridin-2-yl}methyl)amino]-3-methylbutan-1-ol] the figure was 230 nM; with `CC(C)[C@H](CO)NCc1nc(-c2ccc(Cl)c(Cl)c2)ccc1F` [Example 20, (2R)-2-({[6-(3,4-dichlorophenyl)-3-fluoropyridin-2-yl]methyl}amino)-3-methylbutan-1-ol], 1390 nM.

As to `CC(C)[C@H](CO)NCc1nc(-c2cc(Cl)cc(Cl)c2)ccc1F` [Example 21, (2R)-2-({[6-(3,5-dichlorophenyl)-3-fluoropyridin-2-yl]methyl}amino)-3-methylbutan-1-ol], the IC50 is 3300 nM.

For the molecule `CC(C)[C@H](CO)NCc1nc(-c2cc(C(F)(F)F)cc(C(F)(F)F)c2)ccc1F` [Example 22, (2R)-2-[({6-[3,5-bis(trifluoromethyl)phenyl]-3-fluoropyridin-2-yl}methyl)amino]-3-methylbutan-1-ol], the IC50 is 1280 nM.

Consider `CC(C)Oc1ccc(F)c(-c2ccc(F)c(CN[C@@H](CO)C(C)C)n2)c1` [Example 23, (2R)-2-[({3-fluoro-6-[2-fluoro-5-(propan-2-yloxy)phenyl]pyridin-2-yl}methyl)amino]-3-methylbutan-1-ol], for which the IC50 was 700 nM.

`CC(C)Oc1cccc(-c2ccc(F)c(CN[C@@H](CO)C(C)C)n2)c1` [Example 24, (2R)-2-[({3-fluoro-6-[3-(propan-2-yloxy)phenyl]pyridin-2-yl}methyl)amino]-3-methylbutan-1-ol]: the concentration for half-maximal inhibition (IC50) is 750 nM. Turning to `CC(C)Oc1ccc(-c2ccc(F)c(CN[C@@H](CO)C(C)C)n2)cc1F` [Example 25, (2R)-2-[({3-fluoro-6-[3-fluoro-4-(propan-2-yloxy)phenyl]pyridin-2-yl}methyl)amino]-3-methylbutan-1-ol], the IC50 was determined as 650 nM.

Consider `CC(C)[C@H](CO)NCc1cccc(OC(C)(C)C)n1` [Example 26], for which the IC50 came out at 4060 nM. The result for `CC(C)[C@H](CO)NCc1nc(-c2ccc(F)cc2)ccc1F` [Example 27, (2R)-2-({[3-fluoro-6-(4-fluorophenyl)pyridin-2-yl]methyl}amino)-3-methylbutan-1-ol] reads 320 nM; that for `OC[C@H](NCc1nc(-c2ccc(C(F)(F)F)cc2)ccc1F)C1CC1` [Example 29, (2R)-2-cyclopropyl-2-[({3-fluoro-6-[4-(trifluoromethyl)phenyl]pyridin-2-yl}methyl)amino]ethano 1], 410 nM; that for `CC(C)[C@@H](CO)NCc1nc(-c2ccc(C(F)(F)F)cc2)ccc1F` [Example 30, (2S)-2-[({3-fluoro-6-[4-(trifluoromethyl)phenyl]pyridin-2-yl}methyl)amino]-3-methylbutan-1-ol], more than 20000 nM. The result for `CC(C)[C@H](CO)NCc1nc(-c2ccnc(C(F)(F)F)c2)ccc1F` [Example 31, (2R)-2-({[5-fluoro-2′-(trifluoromethyl)-2,4′-bipyridin-6-yl]methyl}amino)-3-methylbutan-1-ol] reads 2190 nM. The result for `CC(C)[C@H](CO)NCc1nccc(-c2ccc(F)cc2)n1` [Example 32, (2R)-2-({[4-(4-fluorophenyl)pyrimidin-2-yl]methyl}amino)-3-methylbutan-1-ol] reads 12000 nM; that for `CC(C)[C@H](CO)NCc1ccnc(-c2ccc(Cl)cc2)n1` [Example 34, (2R)-2-({[2-(4-chlorophenyl)pyrimidin-4-yl]methyl}amino)-3-methylbutan-1-ol], 1390 nM; that for `CC(C)[C@@H](CO)NCc1nc(-c2ccc(C(F)(F)F)nc2)ccc1F` [Example 35, (2S)-2-({[5-fluoro-6′-(trifluoromethyl)-2,3′-bipyridin-6-yl]methyl}amino)-3-methylbutan-1-ol], more than 20000 nM. `CC(C)[C@H](CO)NCc1nc(-c2ccc(F)cn2)ccc1F` [Example 36, (2R)-2-{[(5,5′-difluoro-2,2′-bipyridin-6-yl)methyl]amino}-3-methylbutan-1-ol]: the IC50 was 950 nM. With `CC(=O)c1cccc(-c2ccc(F)c(CN[C@@H](CO)C(C)C)n2)c1F` [Example 37, 1-{2-fluoro-3-[5-fluoro-6-({[(2R)-1-hydroxy-3-methylbutan-2-yl]amino}methyl)pyridin-2-yl]phenyl}ethanone] the figure was 1190 nM; with `CC(C)[C@H](CO)NCc1nc(-c2ccc(Cl)nc2)ccc1F` [Example 38, (2R)-2-{[(6′-chloro-5-fluoro-2,3′-bipyridin-6-yl)methyl]amino}-3-methylbutan-1-ol], 2850 nM; with `CC(C)[C@H](CO)NCc1nc(-c2cccc(S(=O)(=O)N(C)C)c2)ccc1F` [Example 39, 3-[5-fluoro-6-({[(2R)-1-hydroxy-3-methylbutan-2-yl]amino}methyl)pyridin-2-yl]-N,N-dimethylbenzenesulfonamide], 1700 nM. The result for `CC(=O)c1cccc(-c2ccc(F)c(CN[C@@H](CO)C(C)C)n2)c1` [Example 40, 1-{3-[5-fluoro-6-({[(2R)-1-hydroxy-3-methylbutan-2-yl]amino}methyl)pyridin-2-yl]phenyl}ethanone] reads 1400 nM; that for `CCN(CC)C(=O)c1cccc(-c2ccc(F)c(CN[C@@H](CO)C(C)C)n2)c1` [Example 41, N,N-diethyl-3-[5-fluoro-6-({[(2R)-1-hydroxy-3-methylbutan-2-yl]amino}methyl)pyridin-2-yl]benzamide], 2970 nM; that for `CC(C)[C@H](CO)NCc1nc(-c2ccc(Cl)cc2)ccc1F` [Example 42, (2R)-2-({[6-(4-chlorophenyl)-3-fluoropyridin-2-yl]methyl}amino)-3-methylbutan-1-ol], 390 nM. Consider `CC(C)[C@H](CO)NCc1nc(-c2cccc(N(C)C)c2)ccc1F` [Example 43, (2R)-2-[({6-[3-(dimethylamino)phenyl]-3-fluoropyridin-2-yl}methyl)amino]-3-methylbutan-1-ol], for which the IC50 worked out at 460 nM. The result for `CC(C)[C@H](CO)NCc1nc(-c2cccc(N3CCOCC3)c2)ccc1F` [Example 44, (2R)-2-[({3-fluoro-6-[3-(morpholin-4-yl)phenyl]pyridin-2-yl}methyl)amino]-3-methylbutan-1-ol] reads 830 nM.

The values above are taken from US9012651B2, “TRPV3 modulators” (AbbVie Inc., priority 2011, dated 2015).
